{"source": "patent US9878006B2", "about": "“Treatment of obesity and obesity related disorders by pharmalogical targeting of Kv1.3 potassium channels” (The Regents of the University of California, priority 2011, dated 2018)", "key": {"brown fat [1]": {"tested_on": "brown fat", "conditions": "man; 1 mg/kg; cited from earlier work"}, "skeletal muscle": {"tested_on": "skeletal muscle", "experiment": "PET imaging, 18FDG uptake by skeletal muscle", "type": "in vivo, mice", "conditions": "FIG. 7", "method": "(§1) ^18F-FDG was purchased from PETNET. Mice were fasted overnight before CT or PET scan. For PET scan animals were injected with 0.1-0.2 mCi of ^18F-FDG in sterile saline. Approximately, 0.02 to 0.05 ml was administered intravenously (tail vein) under 2% Isoflurane and animal was allowed to remain awake for 60 mins in their cages to allow distribution and uptake of ^18F-FDG. During the scan 2% isoflurane was used and the mouse was laid in the supine position on the scanner. All PET acquisitions were performed with an Inveon (Siemens Medical Solutions) preclinical PET scanner. PET data was acquired for 30 min. When used with PET scanner CT data was obtained immediately after PET imaging without changing the position of the animal. PET images were corrected for attenuation, scatter, randoms, and dead time. Images were reconstructed as 128×128 matrices using a fast MAP algorithm with a smoothing factor of 0.1. CT HU of BAT and WAT was obtained by calibrating the CT data using linear interpolation of water CT Density (CT HU=0) and air CT density (CT HU=−1000). After the scan procedure, animals were allowed to recover from anesthesia, placed in their cages and monitored for normal recovery.\n(§2) All scanning data was acquired in full list mode and sorted into a single frame, 3 dimensional sinogram, which was rebinned using a Fourier rebinning algorithm. […]"}, "brown fat [2]": {"tested_on": "brown fat", "conditions": "rats; 5 mg/kg body wt; cited from earlier work"}, "brown adipose tissue": {"tested_on": "brown adipose tissue", "experiment": "PET scan, 18FDG uptake by brown adipose tissue", "type": "in vivo, mice", "method": "as §1, §2"}, "[3]": {"tested_on": "brown adipose tissue cells", "conditions": "potassium channel blockade; cited from earlier work"}, "[4]": {"experiment": "CLAMS metabolic cages: feeding, drinking, RER, energy expenditure", "type": "in vivo, mice", "from_the_text": "FIGS. 4A through 4D show feeding and drinking patterns of mice analyzed in negative-flow CLAMS (Comprehensive Lab Animal Monitoring system) metabolic cages. All the animals were habituated with the high fat/high fructose diet for at least 7 days prior to the metabolic cage studies. All animals were placed individually in each metabolic cage and habituated for two days under normal 12 hr. light-dark cycle.\nMice were acclimated for 2 days in the metabolic cages before the measurements were made.\nFIGS. 5A through 5D show Respiratory Exchange Ratio (RER) and energy expenditure in vehicle controls (n-2) and ShK-186-treated mice (n=2). RER of 0.70 is when a subject is metabolizing pure fat, whereas RER of 1.0 is when a subject is metabolizing pure carbohydrate."}, "white adipose tissue": {"tested_on": "white adipose tissue", "experiment": "CT scan of white adipose tissue in the diet-induced obesity model", "type": "in vivo, C57BL/6 mice", "conditions": "500 μg/kg; after 45 days on high fat/high fructose diet; vs vehicle; p=0.000708; FIG. 3A/3B", "method": "Mice were fasted overnight before CT scans. All CT acquisitions were performed with an Inveon (Siemens Medical Solutions) preclinical CT scanner. During the scan 2% isoflurane was used and the mouse was laid in the supine position on the scanner. Images were reconstructed as 128×128 matrices using a fast MAP algorithm with a smoothing factor of 0.1. CT HU of WAT was obtained by calibrating the CT data using linear interpolation of water CT Density (CT HU=0) and air CT density (CT HU=−1000). After the scan procedure, animals were allowed to recover from anesthesia, placed in their cages and monitored for normal recovery. All scanning data was acquired in full list mode and sorted into a single frame, 3 dimensional sinogram, which was rebinned using a Fourier rebinning algorithm. The images were reconstructed using 2 dimensional filter back projection using a Hanning Filter with a Nyquist cut off at 0.5, and corrected for attenuation using the Co-57 attenuation scan data. All CT Data analysis was done using PMOD 3.0 software."}, "[5]": {"experiment": "diet-induced obesity model in mice (high fat/high fructose diet): weight gain and blood glucose", "type": "in vivo, C57BL/6 mice", "conditions": "20, 100 or 500 μg/kg s.c. on alternate days", "method": "The accompanying figures show the obesity-deterring efficacy of ShK-186 in the diet-induced obesity model in C57BL/J mice (diet composed of 21% fat+60% fructose-water). 8 week old C57BL/6 mice were purchased from Harlan Co. (Indianapolis, Ind.). They were fed a specialized high fat diet (#TD88137; 21% fat) purchased from Harlan Co. (Indianapolis, Ind.), and they received a 60% fructose solution to drink. The mice were administered vehicle (P6N) or ShK-186 (20, 100 or 500 μg/kg) by subcutaneous injections on alternate days. Animals were weighed on alternate days. Blood glucose levels were monitored every 6 days by tail-vein sampling using an Accu-Chek compact glucometer from Roche. The animal experimental protocol was approved by the Institutional Animal Care and Use Committee at University of California, Irvine.\nAll mice received the high fat/high fructose diet throughout the trial. They received vehicle (P6N) or ShK-186 (20, 100 or 500 μg/kg) on alternate days by subcutaneous injection. The weight is normalized to the average weight at the start of the study. All the mice in this study were males. Using repeated measures ANOVA, the p value <0.0001 for all the ShK-186 doses."}, "[6]": {"conditions": "n=2, vs vehicle controls, FIG. 5A-5D"}}, "note": "Read-outs that look alike come from different tables or passages of the source.", "data": [{"compound": "CC(C)NCC(O)COc1cccc2ccccc12", "note": "(centres unmarked) [propranolol, reference compound]", "values": [{"measurement": "18-fluoro-deoxyglucose uptake into brown fat", "setting": "brown fat [1]", "result": "has the same effect"}, {"measurement": "inhibition of ShK-186-increased 18FDG uptake by skeletal muscle", "setting": "skeletal muscle; propranolol 5 mg/kg", "result": "did not inhibit this uptake"}, {"measurement": "18-fluoro-deoxyglucose uptake into brown fat", "setting": "brown fat [2]", "result": "eliminates ^18-fluoro-deoxyglucose uptake into brown fat"}, {"measurement": "inhibition of 18FDG uptake by brown adipose tissue", "setting": "brown adipose tissue; propranolol 5 m/kg, FIG. 6B", "result": "inhibited"}]}, {"compound": "CC[N+](CC)(CC)CC", "note": "[tetraethylammonium]", "values": [{"measurement": "metabolic response of brown adipose tissue cells to adrenergic stimulation", "setting": "[3]", "result": "does not alter the metabolic response of brown adipose tissue cells to adrenergic stimulation"}]}, {"compound": "p-phospho-Tyr-AEEAc-Arg-Ser-Cys-Ile-Asp-Thr-Ile-Pro-Lys-Ser-Arg-Cys-Thr-Ala-Phe-Gln-Cys-Lys-His-Ser-Met-Lys-Tyr-Arg-Leu-Ser-Phe-Cys-Arg-Lys-Thr-Cys-Gly-Thr-Cys [ShK-186]", "values": [{"measurement": "feeding and drinking pattern", "setting": "[4]; given at onset of the measuring phase, controls feed and drink in dark cycle only, p<0.05 after first 24 hrs, FIG. 4A-4D", "result": "feed and drink during both dark and light cycles"}, {"measurement": "Respiratory Exchange Ratio (RER), substrate metabolized", "setting": "[4]; n=2, especially during the light cycle, FIG. 5A-5D", "result": "metabolize more carbohydrate than fat"}, {"measurement": "energy expenditure during the day", "setting": "[4]; [6]", "result": "greater energy expenditure during the day"}, {"measurement": "energy expenditure during the night", "setting": "[4]; [6]", "result": "roughly equivalent energy expenditure during the night"}, {"measurement": "18FDG uptake by skeletal muscle", "setting": "skeletal muscle; ShK-186 at 20, 100 and 500 μg/kg", "result": "increased ^18FDG uptake by skeletal muscle"}, {"measurement": "volume of white adipose tissue", "setting": "white adipose tissue", "result": "significantly reduced the volume of white adipose tissue"}, {"measurement": "18FDG uptake by brown adipose tissue", "setting": "brown adipose tissue; ShK-186 at 100 and 500 μg/kg, FIG. 6A", "result": "induces ^18FDG-uptake by brown adipose tissue"}, {"measurement": "blood glucose levels", "setting": "[5]; measured every 6 days, FIG. 1B", "result": "without changing blood glucose levels"}, {"measurement": "weight gain", "setting": "[5]; vs vehicle, dose-dependent, p<0.0001 for all doses, FIG. 1A", "result": "significantly reduced weight gain"}]}]}
